Results: patent US20250231157A1, “METHOD FOR DETERMINING THE PARTITION OF NAPHTHENIC ACIDS FROM A PRODUCTION WATER MIMICKING SYSTEM AND MIMICKING SYSTEM” (PETRÓLEO BRASILEIRO S.A. – PETROBRAS, priority 2023, published 2025)
“And” between values parts separate entries of the source, which are not always exact repeats. Identical values can stand only once.

Experiments:
[1] = Partition equilibrium (migration to aqueous phase) heptol/water under pressure and temperature, central composite design, potentiometric titration; assay type: physicochemical; conditions: for Migration, Predicted: model value
Procedure: Three multivariate experimental designs (central composite designs) were performed in which the variables pressure (up to 1 MPa) and temperature (between 25° C. and 80° C.) were considered independent variables, with the migration of three acidic species as the response factor: benzoic, pentanoic and cyclohexanepentanoic acid. For this purpose, 5 levels were defined and gave rise to 10 experiments for each acidic species (Table 4), added to two control experiments (with higher pressure and temperature, as well as in the absence of pressure and at room temperature).
The experiments were performed with constant salinity of 3.5% (m·v^−1), constant heptol fraction (70:30, for heptane and toluene), and acidic species concentration of 0.03 M for benzoic and pentanoic acid, and 0.01 M for cyclohexanepentanoic acid. The results were evaluated with 95% confidence, using a response surface to estimate the maximum observable effect in each case, provided that the mathematical correlation was equal to or greater than R^2: 0.75.

[2] = Partition equilibrium under the influence of salinity (NaCl), glass reactor, neutralization titration; assay type: physicochemical
Procedure: The variation in salinity (and its effect on acidic species) is due to the large variation in salinity found between the portions of bottom-hole water, middle-well water and surface water. Thus, systems with salinity (i.e., NaCl) between 3.5 and 30% (m·v^−1) were tested in a glass reactor, and neutralization titration was performed (in triplicate analysis), as previously described. Furthermore, the experimental results were generated in triplicate, using 99% NaCl (Sigma-Aldrich) with five acidic species.

[3] = Partition equilibrium with addition of calcium and strontium salts to the aqueous phase; assay type: physicochemical; conditions: for Migration: salinity 3.5%
Procedure: The addition of salts to the reaction system is of fundamental importance when one intends to mimic field conditions. In this sense, in addition to continuing the study of the salinity effect (Example 4), the insertion of salts containing Ca^2+ and Sr^2+ ions, known to be present in seawater, was tested. To this end, the projects were based on the literature (Zheng, J. et al. Offshore produced water management: A review of current practice and challenges in harsh/Arctic environments. Mar. Pol. Bul. 2016, 104, 7-19) and four concentrations of each of the two ions were evaluated (400.0, 1200.0, 2600.0 and 9000.0 mg·L^−1), maintaining salinity at 3.5% (m·v^−1).
In short, the experimental results were generated in triplicate, using 99% NaCl to add salinity to the aqueous fraction and PA calcium chloride and PA strontium chloride to add calcium and strontium, respectively.
The addition of calcium and strontium to the reaction system, in the form of salts, aims at mimicking the real scenario in which both species are present (regardless of the salinity of the medium), especially in the well condition. This study aimed at understanding the effect (on the migration of acids to the organic phase) of this ion in the system also at concentrations higher than 10 mM. Finally, the experiments (in triplicate) with divalent strontium ions followed the same rationale.

[4] = Partition equilibrium in the presence of surfactants (TBA, CTA, TMA); assay type: physicochemical
Excerpt: The presence of chemical compounds usually added in the chain of unit operations of oil extraction and production, such as demulsifiers and surfactants, can affect the partition equilibrium of species in this water/oil system. In order to understand the extent of this effect, as well as discern the relevance of the chemical structure on this effect, the following items were chosen: • Dissolvan 961 (Clariant), composed of oil hydrocarbons (CAS 918-811-1) and ethanol (CAS 64-17-5); • Dissolvan 974 (Clariant), composed of EO-PO block polymer poly adducts and Bisphenol-A-diglycidyl ether (CAS 68123-18-2) and ethanol (CAS 64-17-5); • Tetrabutylammonium chloride (CAS 1112-67-0), 97% purity; • Cetyltrimethylammonium chloride (CAS 112-02-7), 25% in water; and • Trimethylammonium chloride (CAS 593-81-7), 98% purity.
For this study, the experiments (in triplicate) used between 100.0 and 1000.0 mg·L^−1 of each compound, comparing the results with control tests (absence of the component), all with constant salinity at 3.5% (m·v^−1). Finally, neutralization titration with a standardized NaOH titrant solution was used to determine the effect on the partition equilibrium for four acidic species (the same as in the other examples, except for dicyclohexylacetic acid).
Considering the study with surfactants, the (individual) addition of three species to the control system was evaluated (tetrabutylammonium chloride (TBA), tetramethylammonium chloride (TMA) and cetyltrimethylammonium chloride (CTA)). For this purpose, the surfactants have distinct chemical structures, namely the size of the side chain, and their eventual effect on the partition equilibrium of the acidic species was evaluated.

[5] = Partition equilibrium under the influence of salinity (NaCl), glass reactor, neutralization titration; assay type: physicochemical; conditions: Salinity 0 (%, m · m^−1) NaCl
[6] = Partition equilibrium in the presence of demulsifiers (Dissolvan 961, Dissolvan 974)

Migration, Measured ([1]; 20 °C, 0.1 MPa (experiment 12, control)): 4.0 %, mol
Migration, Increment (related to control) ([1]; 25 °C, 0.5 MPa (experiment 5)): −39.73 %, mol
Migration, Measured ([1]; 25 °C, 0.5 MPa (experiment 5)): 2.4 %, mol
Migration, Increment (related to control) ([1]; 38 °C, 0.25 MPa (experiment 1)): −42.22 %, mol
Migration, Measured ([1]; 38 °C, 0.25 MPa (experiment 1), heptol 70:30, 3.5% salinity): 2.3 %, mol
Migration, Increment (related to control) ([1]; 38 °C, 0.75 MPa (experiment 3)): 104.3 %, mol
Migration, Measured ([1]; 38 °C, 0.75 MPa (experiment 3)): 8.2 %, mol
Migration, Increment (related to control) ([1]; 52 °C, 0.1 MPa (experiment 7)): −29.8 %, mol
Migration, Measured ([1]; 52 °C, 0.1 MPa (experiment 7)): 2.8 %, mol
Migration, Measured ([1]; 52 °C, 0.5 MPa (experiments 9 and 10, centre point)): 2.6 %, mol and 3.1 %, mol
Migration, Increment (related to control) ([1]; 52 °C, 1 MPa (experiment 8)): 76.99 %, mol
Migration, Measured ([1]; 52 °C, 1 MPa (experiment 8)): 7.1 %, mol
Migration, Increment (related to control) ([1]; 66 °C, 0.25 MPa (experiment 2)): −37.25 %, mol
Migration, Measured ([1]; 66 °C, 0.25 MPa (experiment 2)): 2.5 %, mol
Migration, Increment (related to control) ([1]; 66 °C, 0.75 MPa (experiment 4)): 106.79 %, mol
Migration, Measured ([1]; 66 °C, 0.75 MPa (experiment 4)): 8.3 %, mol
Migration, Increment (related to control) ([1]; 80 °C, 0.5 MPa (experiment 6)): 157.42 %, mol
Migration, Measured ([1]; 80 °C, 0.5 MPa (experiment 6)): 10.3 %, mol
Migration, Increment (related to control) ([1]; 80 °C, 1 MPa (experiment 11)): −34.77 %, mol
Migration, Measured ([1]; 80 °C, 1 MPa (experiment 11, control)): 2.6 %, mol
Migration, Predicted ([1]; 25 °C, 0.5 MPa (experiment 5)): 4.0 %, mol
Migration, Predicted ([1]; 38 °C, 0.25 MPa (experiment 1)): 1.7 %, mol
Migration, Predicted ([1]; 38 °C, 0.75 MPa (experiment 3)): 5.1 %, mol
Migration, Predicted ([1]; 52 °C, 0.1 MPa (experiment 7)): 1.9 %, mol
Migration, Predicted ([1]; 52 °C, 0.5 MPa (experiments 9 and 10)): 3.5 %, mol
Migration, Predicted ([1]; 52 °C, 1 MPa (experiment 8)): 8.6 %, mol
Migration, Predicted ([1]; 66 °C, 0.25 MPa (experiment 2)): 4.4 %, mol
Migration, Predicted ([1]; 66 °C, 0.75 MPa (experiment 4)): 7.7 %, mol
Migration, Predicted ([1]; 80 °C, 0.5 MPa (experiment 6)): 9.3 %, mol
Migration, Predicted ([1]; 80 °C, 1 MPa (experiment 11)): 8.6 %, mol
Migration to aqueous medium, approximate level over the salinity study ([2]; 0-30% NaCl): ~5%
Effect of the addition of salinity on migration ([2]; 3.5-30% NaCl, 95% reliability): no significant effect
Migration ([2]; Salinity 3.5 (%, m · m^−1) NaCl): 5.5 %, mol
Migration ([2]; Salinity 18.0 (%, m · m^−1) NaCl): 5.5 %, mol
Migration ([2]; Salinity 30.0 (%, m · m^−1) NaCl): 4.8 %, mol
Migration ([3]; Absence of ions): 4.9 %, mol
Migration ([3]; Calcium 400 mg · L^−1): 5.5 %, mol
Migration ([3]; Calcium 1200 mg · L^−1): 4.7 %, mol
Migration ([3]; Calcium 2600 mg · L^−1): 4.8 %, mol
Migration ([3]; Strontium 400 mg · L^−1): 4.4 %, mol
Migration ([3]; Strontium 1200 mg · L^−1): 5.3 %, mol
Migration ([3]; Strontium 2600 mg · L^−1): 4.8 %, mol
Effect of calcium ion on migration to the aqueous phase ([3]; calcium up to the maximum study concentrations): no variation in migration
Effect of strontium ions on migration to the aqueous phase ([3]; strontium 400-2600 mg·L^−1): no effect
Migration ([4]; Absence of surfactant, salinity 3.5%): 4.9 %, mol
Migration ([4]; CTA100 (cetyltrimethylammonium chloride 100 mg · L^−1)): 2.1 %, mol
Migration ([4]; CTA1000 (1000 mg · L^−1)): 38.9 %, mol
Migration ([4]; TBA100 (tetrabutylammonium chloride 100 mg · L^−1)): 18.5 %, mol
Migration ([4]; TBA1000 (1000 mg · L^−1)): 18.4 %, mol
Migration ([4]; TMA100 (trimethylammonium chloride 100 mg · L^−1)): 0.0 %, mol
Migration ([4]; TMA1000 (1000 mg · L^−1)): 0.0 %, mol
Increase in migration to the aqueous phase with CTA ([4]; surfactant CTA, 1000 mg·L^−1): above 700%
Increase in the tendency to migrate to the aqueous phase with TBA ([4]; surfactant TBA, noticeable from 100 mg·L^−1): 370%
Effect of TMA on partition equilibrium ([4]; surfactant TMA): migration tending to zero
Migration [5]: 4.9 %, mol
Migration ([6]; Absence of ions (no demulsifier), salinity 3.5%): 4.9 %, mol
Migration ([6]; D961 50 mg · L^−1): 5.42 %, mol
Migration ([6]; D961 100 mg · L^−1): 5.16 %, mol
Migration ([6]; D961 1000 mg · L^−1): 10.2 %, mol
Migration ([6]; D974 50 mg · L^−1): 4.78 %, mol
Migration ([6]; D974 100 mg · L^−1): 5.26 %, mol
Migration ([6]; D974 1000 mg · L^−1): 12.80 %, mol
Increase in migration to the aqueous phase with demulsifier ([6]; addition of 1000 mg·L^−1 demulsifier): ~100%
Compound: O=C(O)CCCCC1CCCCC1 [Cyclohexanepentanoic Acid, cyclohexanepentanoic acid]
